Laboratory results: article PMC5111430 (ACS chemical biology, 2016)

Legend:
[1] = target: recombinant human P301L tau (Homo sapiens, UniProt P10636, P618L); assay: Hydrogen peroxide production assay; assay type: biochemical; settings: recombinant tau (10 µM) with 30 µM compound vs vehicle
human recombinant tau = human recombinant tau (Homo sapiens, UniProt P10636, P618L); assay: Nondenaturing gel electrophoresis of ThT samples, high molecular weight tau; assay type: biochemical; settings: ThT samples incubated with 30 µM compound
human recombinant tau, sequence (P10636 1-383 isoform P10636-6 P243L): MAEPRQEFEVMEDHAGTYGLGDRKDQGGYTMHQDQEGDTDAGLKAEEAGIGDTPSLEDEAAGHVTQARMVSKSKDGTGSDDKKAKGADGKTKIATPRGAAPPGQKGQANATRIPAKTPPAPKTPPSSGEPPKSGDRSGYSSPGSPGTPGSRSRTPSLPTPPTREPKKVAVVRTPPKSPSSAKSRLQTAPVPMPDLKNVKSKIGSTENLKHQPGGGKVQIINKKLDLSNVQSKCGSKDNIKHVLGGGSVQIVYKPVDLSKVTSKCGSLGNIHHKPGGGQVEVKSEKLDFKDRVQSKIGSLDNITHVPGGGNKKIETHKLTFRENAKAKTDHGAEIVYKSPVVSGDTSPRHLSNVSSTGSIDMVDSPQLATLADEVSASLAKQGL

[2] = target: 4R0N human recombinant tau (Homo sapiens, UniProt P10636, P618L); assay: In vitro tau aggregation, thioflavin T fluorescence assay; assay type: biochemical; settings: for effect on tau aggregation levels in vitro: ThT fluorescence, heparin-induced, 24 h
4R0N human recombinant tau, sequence (P10636 1-383 isoform P10636-6 P243L): as above

WT4R0N tau = assay type: cell-based, human; settings: HEK293T, transient WT4R0N tau, 24 h; for effect on tau levels (Hsp70 inhibitor scaffolds): increasing concentrations up to 30 µM; for effect on tau levels (tau aggregation inhibitor scaffolds): increasing concentrations
HEK293T cells = assay: LDH cytotoxicity assay; assay type: cell-based, human; settings: increasing concentrations, 24 h, relative to DMSO
[3] = target: Recombinant human Hsp70 and DnaJA2 (Homo sapiens, UniProt P0DMV8); assay: Hsp70 ATPase malachite green assay; assay type: biochemical; settings: 1 µM Hsp70, 1 µM DnaJA2, 1 mM ATP, 30 min preincubation, 3 h
Recombinant human Hsp70 and DnaJA2, sequence (P0DMV8 whole entry): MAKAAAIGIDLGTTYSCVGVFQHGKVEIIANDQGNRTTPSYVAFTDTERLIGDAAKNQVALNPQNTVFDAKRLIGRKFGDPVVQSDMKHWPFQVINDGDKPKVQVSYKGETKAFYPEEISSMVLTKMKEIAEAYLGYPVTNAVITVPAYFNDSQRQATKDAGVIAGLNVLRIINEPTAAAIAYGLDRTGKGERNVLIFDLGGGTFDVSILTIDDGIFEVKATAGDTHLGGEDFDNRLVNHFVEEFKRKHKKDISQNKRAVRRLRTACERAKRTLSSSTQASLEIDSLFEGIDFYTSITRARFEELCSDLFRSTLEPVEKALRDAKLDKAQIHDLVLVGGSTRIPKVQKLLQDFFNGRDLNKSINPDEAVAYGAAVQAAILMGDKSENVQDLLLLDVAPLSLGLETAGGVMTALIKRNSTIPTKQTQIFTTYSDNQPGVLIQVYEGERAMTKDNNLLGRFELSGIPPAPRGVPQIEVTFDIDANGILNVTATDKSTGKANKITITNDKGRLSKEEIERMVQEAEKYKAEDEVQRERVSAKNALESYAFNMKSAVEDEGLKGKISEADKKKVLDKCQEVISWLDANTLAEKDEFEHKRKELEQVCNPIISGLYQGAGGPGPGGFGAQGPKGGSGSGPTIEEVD

recombinant human P301L tau, sequence (P10636 1-383 isoform P10636-6 P243L): as the sequence (P10636 1-383 isoform P10636-6 P243L) above

CCn1c(=O)/c(=C2\Sc3cc(Cl)ccc3N2C)s/c1=C\c1scc[n+]1Cc1ccccc1.[Cl-] [rhodacyanine, 3-benzyl-2-((Z)-((E)-5-(6-chloro-3-methylbenzo[d]thiazol-2(3H)-ylidene)-3-ethyl-4-oxothiazolidin-2-ylidene)methyl)thiazol-3-ium chloride]
production of hydrogen peroxide [1]: no significant differences
effect on high molecular weight tau (human recombinant tau): most potently reduced high molecular weight tau
IC50 [2]: 0.813 µM

CCCn1c(NC(=O)[C@H]2CCCN(c3cnccn3)C2)nc2ccccc21 [piperidine-3-carboxamide, (S)-N-(1-propyl-1H-benzimidazol-2-yl)-1-(2-pyrazinyl)piperidine-3-carboxamide]
effect on tau levels (Hsp70 inhibitor scaffolds) (WT4R0N tau): increased tau levels
effect on tau aggregation levels in vitro [2]: increased tau aggregation levels

Nc1scc2c(C(=O)NC3CC3)nn(-c3ccc(Cl)cc3)c(=O)c12 [ATPZ, 5-amino-3-(4-chlorophenyl)-N-cyclopropyl-4-oxo-3,4-dihydrothieno[3,4-d]pyridazine-1-carboxamide]
effect on tau levels (tau aggregation inhibitor scaffolds) (WT4R0N tau): did not lead to tau lowering

CC1=C(C(=O)OCc2ccccc2)C(c2ccc(-c3ccccc3)cc2)NC(=O)N1CCCCCC(=O)O (centres unmarked) [dihydropyrimidine, 4-[1,1'-Biphenyl]-4-yl-3,4-dihydro-6-methyl-2-oxo-5-[(phenylmethoxy)carbonyl]-1(2H)-pyrimidinehexanoic acid]
IC50 [2]: 22.7 µM

2-Phenylethynesulfonamide
LDH cytotoxicity (HEK293T cells): high toxicity relative to the other compounds

O=C1c2ccc(O)c(O)c2C(=O)c2c(O)ccc(O)c21 [anthraquinone, 1,2,5,8-Tetrahydroxy-9,10-anthraquinone, 1,2,5,8-Tetrahydroxyanthraquinone]
effect on tau levels at 30 µM (WT4R0N tau; 30 µM): effectively lowered tau levels
effect on tau levels (tau aggregation inhibitor scaffolds) (WT4R0N tau): lowered tau levels

2-((Z)-5-((5-(3- chlorophenyl)furan -2-yl)methylene)-4-oxo-2- thioxothiazolidin-3- yl)ethanoic acid [rhodanine]
Hsp70 ATPase activity [3]: inhibited Hsp70 ATPase activity

N#Cc1ccc(COC[C@H]2O[C@@H](n3c(NCc4ccc(Cl)c(Cl)c4)nc4c(N)ncnc43)[C@H](O)[C@@H]2O)cc1 [adenosine analog, 5'-O-[(4-Cyanophenyl)methyl]-8-[[(3,4-dichlorophenyl)methyl]amino]-adenosine]
effect on tau levels (Hsp70 inhibitor scaffolds) (WT4R0N tau): increased tau levels
effect on tau aggregation levels in vitro [2]: increased tau aggregation levels

CN(C)c1ccc2nc3ccc(N(C)C)cc3[s+]c2c1.[Cl-] [phenothiazine, 3,7-bis(Dimethylamino)phenazat hionium chloride]
effect on high molecular weight tau (human recombinant tau): most potently reduced high molecular weight tau
